Experimental data published in ChEMBL document CHEMBL1124410, “New antitumor monoclonal antibody-vinca conjugates LY203725 and related compounds: design, preparation, and representative in vivo activity” (J Med Chem, 1989).
Converted amounts (≈) assume the structure as drawn.

How the values were obtained:
CCRF-CEM = assay: In vitro inhibition of CCRF-CEM human leukemic lymphoblasts proliferation was determined; type: functional, cell-based
[1] = In vitro inhibition of P3UCLA human adenocarcinoma cell proliferation was determined in MTT proliferation assay; type: functional

IC50 (CCRF-CEM)	Compound	IC50 [1]
0.1 µg/mL (≈ 0.123 µM)	CC[C@]1(O)CC2CN(CCc3c([nH]c4ccccc34)[C@@](C(=O)OC)(c3cc4c(cc3OC)N(C)C3C45CCN4CC=C[C@](CC)(C45)C(OC(C)=O)[C@]3(O)C(=O)OC)C2)C1 (stereo partly specified)	–
1.4 µg/mL (≈ 1.61 µM)	CC[C@]1(O)CC2CN(CCc3c([nH]c4ccccc34)[C@@](C(=O)OC)(c3cc4c(cc3OC)N(C)C3C45CCN4CC=C[C@](CC)(C45)C(OC(=O)CCC(=O)O)[C@]3(O)C(=O)OC)C2)C1 (stereo partly specified)	0.003 µg/mL (≈ 0.00345 µM)
–	CC[C@]1(O)CC2CN(CCc3c([nH]c4ccccc34)[C@@](C(=O)OC)(c3cc4c(cc3OC)N(C)C3C45CCN4CC=C[C@](CC)(C45)C(O)[C@]3(O)C(=O)OC)C2)C1 (stereo partly specified)	0.0003 µg/mL (≈ 0.00039 µM)

Compound	IC50 (CCRF-CEM)	IC50 [1]
CC[C@]1(O)C[C@@H]2CN(CCc3c([nH]c4ccccc34)[C@@](C(=O)OC)(c3cc4c(cc3OC)N(C)[C@H]3[C@@](O)(C(=O)NN)[C@H](O)[C@]5(CC)C=CCN6CC[C@]43[C@@H]65)C2)C1 [DESACETYLVINBLASTINEHYDRAZIDE]	0.03 µg/mL (≈ 0.039 µM)	< 0.0003 µg/mL
